Results taken from US20110136777A1, “CRYSTALLINE SODIUM SALT OF CEPHALOSPORIN ANTIBIOTIC” (Orchid Chemicals and Pharmaceuticals Limited, priority 2008, published 2011).
Like-named read-outs stand apart in the source and are kept apart here.

What was measured:
[1] = Stability over shelf life (statement in words); details: over the shelf life period
Tapped bulk density = type: physicochemical
[2] = Hygroscopic nature of the solid; type: physicochemical
[3] = Stability at 40 ± 2° C. & 75 ± 5% RH; type: physicochemical; details: for Assay: in % (unit assumed)
Procedure: (§1) In still another embodiment of the present invention, novel anhydrous crystalline polymorph of Ceftiofur sodium (Form A) of formula (I) having the following X-ray diffraction characteristic peaks (±0.2°2θ): 5.68, 6.54, 8.84, 12.82, 13.16, 16.33, 17.36, 18.71, 18.94, 20.25, 21.53, 22.11, 22.79, 24.44, 24.88, 25.46, and 27.00 in °2θ. The anhydrous crystalline Ceftiofur sodium of the present invention has moisture content in the range of 0.4 to 2.0%. The anhydrous Ceftiofur sodium (Form A) is prepared by drying the Ceftiofur sodium either under vacuum or under normal pressure at a temperature in the range of 60-125° C. till the moisture content reaches 0.4 to 2.0%. The moisture content of Ceftiofur sodium is measured by using Karl-Fisher technique. The following tables (Table 2 & 3) provide stability data of anhydrous crystalline Ceftiofur Sodium (Form A) prepared according to this invention. From this table it is evident that the anhydrous crystalline Ceftiofur Sodium prepared according this invention is very stable and highly pure, which is clearly indicated by total RS (Related substances) analysis & the stability data.

[4] = Stability at 25 ± 2° C. & 60 ± 5% RH; type: physicochemical; details: for Assay: in % (unit assumed)
Procedure: as §1

For `CO/N=C(\C(=O)N[C@@H]1C(=O)N2C(C(=O)[O-])=C(CSC(=O)c3ccco3)CS[C@H]12)c1csc(N)n1.[Na+]` [Amorphous, Ceftiofur sodium, reference compound], the Stability ([1]; listed as amorphous Ceftiofur sodium) was “less stable”, the “Tapped Bulk density” value (Tapped bulk density) was 0.5 g/mL and the “Nature (hygroscopicity)” value ([2]; listed as conventional amorphous Ceftiofur sodium) was “highly hygroscopic”.

For `CO/N=C(\C(=O)N[C@@H]1C(=O)N2C(C(=O)[O-])=C(CSC(=O)c3ccco3)CS[C@H]12)c1csc(N)n1.[Na+]` [Form A, Ceftiofur sodium], the Moisture Content ([3]; 3 Months) was 1.08%, the Total RS (Related substances) ([3]; 3 Months) was 0.19% and the Assay ([3]; 3 Months) was 98.14. The Moisture Content ([3]; 6 month) was 1.54%, the Total RS (Related substances) ([3]; 6 month) was 0.33% and the Assay ([3]; 6 month) was 98.64. It also gave a Moisture Content ([3]; Initial) of 1.05%, a Total RS (Related substances) ([3]; Initial) of 0.15% and an Assay ([3]; Initial) of 99.74. For the same molecule, the Stability [1] was “good”, the “Tapped Bulk density” value (Tapped bulk density) was 0.7 g/mL and the “Nature (hygroscopicity)” value [2] was “Non-Hygroscopic”. For the same molecule, the “Nature (hygroscopicity)” value ([2]; listed as anhydrous crystalline Ceftiofur sodium) was “non-hygroscopic”, the Moisture Content ([4]; 3 Months) was 1.05% and the Total RS (Related substances) ([4]; 3 Months) was 0.16%. The Assay ([4]; 3 Months) was 98.84, the Moisture Content ([4]; 6 month) was 1.11% and the Total RS (Related substances) ([4]; 6 month) was 0.21%. For the same molecule, the Assay ([4]; 6 month) was 99.47, the Moisture Content ([4]; Initial) was 1.05% and the Total RS (Related substances) ([4]; Initial) was 0.15%. For the same molecule, the Assay ([4]; Initial) was 99.74.
